The values below come from paper PMC6630470, “Anomeric Spironucleosides of β-D-Glucopyranosyl Uracil as Potential Inhibitors of Glycogen Phosphorylase” (Molecules, 2019).

The target of the assay is T1, rabbit muscle glycogen phosphorylase b (RMGPb) (Oryctolagus cuniculus, UniProt P00489).
T1 construct: gene PYGM
T1 sequence (P00489 2-843): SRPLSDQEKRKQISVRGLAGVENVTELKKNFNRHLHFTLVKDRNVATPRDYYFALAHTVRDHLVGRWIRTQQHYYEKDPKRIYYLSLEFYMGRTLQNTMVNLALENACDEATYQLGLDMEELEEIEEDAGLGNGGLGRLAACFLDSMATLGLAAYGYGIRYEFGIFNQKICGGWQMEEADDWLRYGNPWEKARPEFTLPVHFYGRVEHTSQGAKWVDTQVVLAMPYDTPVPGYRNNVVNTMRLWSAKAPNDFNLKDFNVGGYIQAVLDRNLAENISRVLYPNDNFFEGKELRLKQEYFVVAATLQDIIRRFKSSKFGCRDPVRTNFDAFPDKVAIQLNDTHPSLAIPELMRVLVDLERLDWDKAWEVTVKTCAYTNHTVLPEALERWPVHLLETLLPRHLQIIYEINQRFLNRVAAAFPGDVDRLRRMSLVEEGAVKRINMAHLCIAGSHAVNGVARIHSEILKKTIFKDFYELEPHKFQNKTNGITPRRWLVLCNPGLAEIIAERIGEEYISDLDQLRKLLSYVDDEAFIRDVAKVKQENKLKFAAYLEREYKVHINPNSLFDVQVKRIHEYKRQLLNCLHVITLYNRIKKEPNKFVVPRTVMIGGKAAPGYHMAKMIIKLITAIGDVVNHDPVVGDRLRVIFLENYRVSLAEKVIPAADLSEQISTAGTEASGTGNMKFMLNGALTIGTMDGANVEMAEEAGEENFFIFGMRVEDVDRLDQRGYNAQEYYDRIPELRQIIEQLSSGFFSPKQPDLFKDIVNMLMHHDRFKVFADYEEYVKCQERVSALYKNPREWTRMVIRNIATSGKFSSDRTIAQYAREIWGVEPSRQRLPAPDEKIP
As to the kind of experiment: enzyme kinetics in the direction of glycogen synthesis with purified, recrystallized RMGPb ([…] AMP, […] glycogen). The assay is classed as biochemical. As to conditions: read-out: % inhibition at 1 mM.

For `O=c1cc2n(c(=O)[nH]1)[C@]1(OC2)O[C@H](CO)[C@@H](O)[C@H](O)[C@H]1O` [4a, (3R,3′R,4′S,5′S,6′R)-3′,4′,5′-Trihydroxy-6′-(hydroxymethyl)-3′,4′,5′,6′-tetrahydrospiro[oxazolo[3,4-c]pyrimidine-3,2′-pyran]-5,7(1H,6H)-dione], the inhibition at 1000 µM was 26%. In the case of `O=c1cc2n(c(=O)[nH]1)[C@@]1(OC2)O[C@H](CO)[C@@H](O)[C@H](O)[C@H]1O` [4b, (3S,3′R,4′S,5′S,6′R)-3′,4′,5′-Trihydroxy-6′-(hydroxymethyl)-3′,4′,5′,6′-tetrahydrospiro[oxazolo[3,4-c]pyrimidine-3,2′-pyran]-5,7(1H,6H)-dione], the inhibition at 1000 µM is 35%.
